Results taken from patent US7655392B2, “Quenching methods for red blood cell inactivation process” (priority 2004, dated 2010).
Where two headings read alike, the source gives them in different places.

Tests used:
Serratia marcescens = assay type: cell-based
red blood cells = assay type: cell-based
Experimental: In another assay, the rabbit polyclonal sera may be reacted with treated red blood cells. After washing off unbound antibody, a FITC labeled goat anti-rabbit Fab′2 fragment (anti H+L chains, Caltag) is added. The binding of FITC label to the red blood cells correlates with the amount of acridine bound to the red blood cell surface, and is assessed by FACScan™ analysis (Becton, Dickinson and Co., NJ). The relative modification of the red blood cells is determined from the FACScan™ mean fluorescence value.
A 20 mL sample of leukoreduced whole blood (Blood Source, Sacramento, Calif.) was centrifuged at 4,100×g for 5 minutes at room temperature in each of four 50 mL centrifuge tubes. The supernatant was removed from each tube to provide red cell concentrate (RCC). […] For each washed RCC, cells were resuspended in 5 mL of the solution used for washing. This is now referred to as the RBC test sample. […] These samples were incubated for 20 hours at room temperature. After incubation, the RBC were washed in BBS (Blood Bank Saline, 0.9% saline, unbuffered, Fisher Scientific) and were diluted to a final hematocrit of 4%. A 25 μL aliquot of each was mixed with 15 μL of rabbit polyclonal anti-acridine sera diluted 1:100 in BBS and the mixture was incubated at 37° C. for 30 minutes. The cells were subsequently washed with 1.5 mL BBS. After washing was complete, the cells were mixed with 50 μL of FITC labeled goat anti-rabbit Fab′2 fragment (1:64 dilution in BBS) and incubated at 37° C. for 30 minutes. […] Note that the quenching improves as glutathione is neutralized with increasing amounts of sodium hydroxide.
The FACScan analysis of the binding of rabbit anti-acridine sera to treated red cells was used to assess a variety of quenching conditions. […] The tables represent data from two different experiments, each with samples treated under standard conditions or with 20 mM neutralized glutathione. […] The data within an experiment provides the relative efficacy of the various treatments. Because the assay may depend on the lot of red blood cells used, the absolute values of mean fluorescence may vary from one study to the next, such that relative values should only be compared within a given experiment. […] Neutralized glutathione at 20 mM results in close to background levels.
An untreated control sample as well as a standard sample (co-addition of 2 mM acidic glutathione with 0.2 mM PIC-1) were also assessed.
Full units of red cell concentrates (Interstate Blood Bank, Inc., Memphis, Tenn.) were leukoreduced. A volume of 200 mL of this RCC (80% hematocrit) was mixed with 94 mL of Erythrosol or 100 mL of Adsol (Baxter Healthcare Corp., Deerfield, Ill.) as control (unit 1). A volume of 20 mL 8% dextrose was used to dissolve PIC-1 (mg) and acid glutathione (mg) and added to one unit to provide 0.2 mM PIC-1 and 2 mM glutathione (unit 2). […] For the glutathione, 1.2 mL of 10 N NaOH was added (2 equivalents). The PIC-1 was mixed with the unit, followed 1 minute later (unit 3) or 5 minutes later (unit 4) by glutathione. For unit 5, neutralized glutathione was mixed first, followed 10 minutes later by the PIC-1. […] All units were mixed by grasping the ends of the blood bag and mixing in a FIG. 8 motion 30 times. These were then incubated at room temperature for 20 hours total. A compound adsorption device (CAD), comprising a polymeric resin contained within a mesh pouch, was used for all but the control sample. This device is intended to remove residual PIC-1, PIC-1 breakdown products, and glutathione from the samples. Samples were incubated for 8 hours, then transferred to a second blood bag containing the CAD and incubated for an additional 12 hours. Following the room temperature incubation, samples were transferred to a refrigerator (4° C.) and stored up to 43 days.

[1] = 0.2 mM PIC-1+2 mM glutathione, 0.9 eq base, formulated together
[2] = 0.2 mM PIC-1+20 mM glutathione, 0 eq base, formulated together
[3] = 0.2 mM PIC-1+20 mM glutathione, 0.9 eq base, formulated together (PIC-1 precipitated)
[4] = 0.2 mM PIC-1+20 mM glutathione, 1.5 eq base, formulated together (PIC-1 precipitated)
[5] = 0.2 mM PIC-1+20 mM glutathione, 2 eq base, formulated together (PIC-1 precipitated)
[6] = 0.2 mM PIC-1 first, 20 mM glutathione+2 eq base shortly after (sequential)
[7] = Table 2B: 0.2 mM PIC-1, then 20 mM glutathione+2 eq base after 1 min
[8] = Table 2B: 0.2 mM PIC-1, then 20 mM glutathione+2 eq base after 5 min
[9] = Table 2B: 0.2 mM PIC-1, then 20 mM glutathione+2 eq base after 10 min
[10] = Table 2B: 0.2 mM PIC-1, then 20 mM glutathione+2 eq base after 20 min
[11] = Table 2B: 0.2 mM PIC-1 and 2 mM glutathione, 0 eq base, simultaneous
[12] = Table 2B: 0.2 mM PIC-1 and 20 mM glutathione, 0 eq base, simultaneous
[13] = Table 2B: 20 mM glutathione+2 eq base, then 0.2 mM PIC-1 after 1 min
[14] = Table 2B: 20 mM glutathione+2 eq base, then 0.2 mM PIC-1 after 10 min
[15] = Table 5A: 0.2 mM PIC-1, then 20 mM GSH+2 eq base after 1 min
[16] = Table 5A: 10 mM Cys+10 mM GSH, 2 eq base each, then 0.2 mM PIC-1 after 10 min
[17] = Table 5A: 15 mM Cys+5 mM GSH, 2 eq base each, then 0.2 mM PIC-1 after 10 min
[18] = Table 5A: 20 mM Cys+2 eq base, then 0.2 mM PIC-1 after 10 min
[19] = Table 5A: 20 mM GSH+2 eq base, then 0.2 mM PIC-1 after 10 min
[20] = Table 5B: 0.2 mM PIC-1+2 mM GSH, 0 eq base, no delay
[21] = Table 5B: 5 mM Cys+2 eq base, then 0.2 mM PIC-1 after 5 min
[22] = Table 5B: 5 mM Cys+2 eq base, then 0.2 mM PIC-1 after 10 min
[23] = Table 5B: 5 mM Cys+2 eq base, then 0.2 mM PIC-1 after 20 min
[24] = Table 5B: 10 mM Cys+2 eq base, then 0.2 mM PIC-1 after 10 min
[25] = Table 5B: 15 mM Cys+2 eq base, then 0.2 mM PIC-1 after 10 min
[26] = Table 5B: 20 mM Cys+2 eq base, then 0.2 mM PIC-1 after 5 min
[27] = Table 5B: 20 mM Cys+2 eq base, then 0.2 mM PIC-1 after 10 min
[28] = Table 5B: 20 mM GSH+2 eq base, then 0.2 mM PIC-1 after 10 min
[29] = Table 5B: […] Cys+2 eq base, then 0.2 mM PIC-1 after 10 min

O=C(CCNc1c2ccccc2nc2ccccc12)OCCN(CCCl)CCCl [PIC-1]
Log S. marcescens reduction (Serratia marcescens; [1]): 4.27 Log | Log S. marcescens titer (Serratia marcescens; [1]): 2.8 Log | Log S. marcescens reduction (Serratia marcescens; [2]): 2.40 Log | Log S. marcescens titer (Serratia marcescens; [2]): 4.6 Log | Log S. marcescens reduction (Serratia marcescens; [3]): 2.26 Log | Log S. marcescens titer (Serratia marcescens; [3]): 4.8 Log | Log S. marcescens reduction (Serratia marcescens; [4]): 1.66 Log | Log S. marcescens titer (Serratia marcescens; [4]): 5.4 Log | Log S. marcescens reduction (Serratia marcescens; [5]): 0.76 Log | Log S. marcescens titer (Serratia marcescens; [5]): 6.3 Log | Log S. marcescens reduction (Serratia marcescens; [6]): 3.02 Log | Log S. marcescens titer (Serratia marcescens; [6]): 4.0 Log | Log S. marcescens reduction (Serratia marcescens; [7]): 3.36 Log | Log S. marcescens titer (Serratia marcescens; [7]): 3.40 Log | Log S. marcescens reduction (Serratia marcescens; [8]): 3.89 Log | Log S. marcescens titer (Serratia marcescens; [8]): 2.87 Log | Log S. marcescens reduction (Serratia marcescens; [9]): 4.96 Log | Log S. marcescens titer (Serratia marcescens; [9]): 1.80 Log | Log S. marcescens reduction (Serratia marcescens; [10]): 6.76 Log | Log S. marcescens titer (Serratia marcescens; [10]): 0.00 Log | Log S. marcescens reduction (Serratia marcescens; [11]): 5.25 Log | Log S. marcescens titer (Serratia marcescens; [11]): 1.51 Log | Log S. marcescens reduction (Serratia marcescens; [12]): 0.71 Log | Log S. marcescens titer (Serratia marcescens; [12]): 6.05 Log | Log S. marcescens reduction (Serratia marcescens; [13]): 3.66 Log | Log S. marcescens titer (Serratia marcescens; [13]): 3.10 Log | Log S. marcescens reduction (Serratia marcescens; [14]): 3.68 Log | Log S. marcescens titer (Serratia marcescens; [14]): 3.08 Log | Log S. marcescens reduction (Serratia marcescens; [15]): 2.7 Log | Log S. marcescens titer (Serratia marcescens; [15]): 4.8 Log | Log S. marcescens reduction (Serratia marcescens; [16]): 3.0 Log | Log S. marcescens titer (Serratia marcescens; [16]): 4.5 Log | Log S. marcescens reduction (Serratia marcescens; [17]): 3.7 Log | Log S. marcescens titer (Serratia marcescens; [17]): 3.8 Log | Log S. marcescens reduction (Serratia marcescens; [18]): 3.1 Log | Log S. marcescens titer (Serratia marcescens; [18]): 4.4 Log | Log S. marcescens reduction (Serratia marcescens; [19]): 3.4 Log | Log S. marcescens titer (Serratia marcescens; [19]): 4.1 Log | Log S. marcescens reduction (Serratia marcescens; [20]): 4.1 Log | Log S. marcescens titer (Serratia marcescens; [20]): 3.5 Log | Log S. marcescens reduction (Serratia marcescens; [21]): 3.2 Log | Log S. marcescens titer (Serratia marcescens; [21]): 4.4 Log | Log S. marcescens reduction (Serratia marcescens; [22]): 3.2 Log | Log S. marcescens titer (Serratia marcescens; [22]): 4.4 Log | Log S. marcescens reduction (Serratia marcescens; [23]): 2.9 Log | Log S. marcescens titer (Serratia marcescens; [23]): 4.7 Log | Log S. marcescens reduction (Serratia marcescens; [24]): 2.7 Log | Log S. marcescens titer (Serratia marcescens; [24]): 4.9 Log | Log S. marcescens reduction (Serratia marcescens; [25]): 3.1 Log | Log S. marcescens titer (Serratia marcescens; [25]): 4.5 Log | Log S. marcescens reduction (Serratia marcescens; [26]): 3.2 Log | Log S. marcescens titer (Serratia marcescens; [26]): 4.4 Log | Log S. marcescens reduction (Serratia marcescens; [27]): 3.0 Log | Log S. marcescens titer (Serratia marcescens; [27]): 4.6 Log | Log S. marcescens reduction (Serratia marcescens; [28]): 3.2 Log | Log S. marcescens titer (Serratia marcescens; [28]): 4.4 Log | Log S. marcescens reduction (Serratia marcescens; [29]): 3.7 Log | Log S. marcescens titer (Serratia marcescens; [29]): 3.9 Log | log inactivation (Serratia marcescens; all conditions of Tables 5A, 5B, 5C (cysteine and/or glutathione, 0.2 mM PIC-1)): at least 3 log | inactivation difference from the standard condition (Serratia marcescens; cysteine or glutathione quenching, Tables 5A-5C): 1-1.5 log | mean fluorescence (red blood cells; 16C day 0.8, unit 2: standard 0.2 mM PIC-1+2 mM GSH): 284 | mean fluorescence (red blood cells; 16C day 0.8, unit 3: 0.2 mM PIC-1, 1' delay, 20 mM GSH+2 eq base): 20.1 | mean fluorescence (red blood cells; 16C day 0.8, unit 4: 0.2 mM PIC-1, 5' delay, 20 mM GSH+2 eq base): 46.0 | mean fluorescence (red blood cells; 16C day 0.8, unit 5: 20 mM GSH+2 eq base, 10' delay, 0.2 mM PIC-1): 20.0 | mean fluorescence (red blood cells; 16C day 2, unit 2: standard 0.2 mM PIC-1+2 mM GSH): 193.5 | mean fluorescence (red blood cells; 16C day 2, unit 3: 0.2 mM PIC-1, 1' delay, 20 mM GSH+2 eq base): 14.58 | mean fluorescence (red blood cells; 16C day 2, unit 4: 0.2 mM PIC-1, 5' delay, 20 mM GSH+2 eq base): 34.07 | mean fluorescence (red blood cells; 16C day 2, unit 5: 20 mM GSH+2 eq base, 10' delay, 0.2 mM PIC-1): 12.31 | mean fluorescence (red blood cells; 16C day 7, unit 2: standard 0.2 mM PIC-1+2 mM GSH): 142.1 | mean fluorescence (red blood cells; 16C day 7, unit 3: 0.2 mM PIC-1, 1' delay, 20 mM GSH+2 eq base): 4.96 | mean fluorescence (red blood cells; 16C day 7, unit 4: 0.2 mM PIC-1, 5' delay, 20 mM GSH+2 eq base): 18.84 | mean fluorescence (red blood cells; 16C day 7, unit 5: 20 mM GSH+2 eq base, 10' delay, 0.2 mM PIC-1): 5.34
